Laboratory results from article PMC10266261, “A High-Throughput Approach to Identify Specific Neurotoxicants / Developmental Toxicants in Human Neuronal Cell Function Assays” (ALTEX, 2018).
Where two headings read alike, the source gives them in different places.

Experiments:
cardiomyocytes = conditions: specific = cardio-physiologic parameters affected after 30 min at three-fold lower concentration than viability and no effect on viability after 24 h; ref Sirenko et al., 2017; cited from earlier work
[1] = test system: immature human dorsal root ganglia neurons; assay: cells; type: cell-based; conditions: for classification in the PeriTox screen: three independent screen runs, up to 20 μM
Protocol: The PeriTox test (= UKN5) is based on cells differentiated from the H9 human embryonic stem cell (hESC) line (WA09 line), which was obtained from WiCell (Madison, WI, USA). The import of cells and the experiments were authorized under license no. 170–79-1–4-27 (Robert Koch Institute, Berlin, Germany).
After one hour, 25 μl PDM with 4x concentrated serial dilutions of the test compounds was added to the cells. At 23 h after treatment, the cells were stained with SM and incubated for one additional hour at 37°C.
(§1) Image acquisition was performed with an ArrayScan VTI HCS (high content imaging) microscope (Cellomics, Waltham, MA, USA).
After automated imaging, an algorithm was applied that identified the neuronal somata (based on identified nuclei) and subtracted the somatic area from the total neuronal area to obtain the neurite area (NA), i.e., the number of pixels per field covered by neurites. […] Viability (V) was expressed as percentage of live cells relative to control.
(§2) Neurite area (NA) and viability (V) were always expressed as percentage of the DMSO control. In a first step, matched technical replicates were averaged. […] Curve fitting was performed employing a 4-parameter log-logistic function with least squares fit. The upper asymptote of the fit was forced to 100%, the lower asymptote was variable. The variation of DMSO controls was calculated from pooled values of DMSO controls over several experiments.
For calculation of the benchmark concentration values (BMC), a benchmark response (BMR) of three standard deviations of DMSO solvent controls of all assay plates (= “3 x noise level”) was used. […] To identify specific effects on neurite outgrowth, the EC50 ratio of EC50(viability)/EC50(neurite area) was calculated.
This method uses human immature dorsal root ganglia neurons (iDRG) that are produced from pluripotent stem cells that are still in a phase of neurite growth. Like in the NeuriTox assay, exposure to toxicants in this test is for 24 h, and readouts for viability (V) and neurite area (NA) are also conducted in a similar way (Fig. 7A).

LUHMES cells = assay: cells; type: cell-based, human; conditions: for classification / outcome after hit confirmation or re-testing (EC50 prediction model): EC50 ratio V/NA ≥ 4 specific, < 4 cytotoxic; for EC50: Homo sapiens; for LOAEL for neurite area (lowest tested concentration with significant reduction) / classification in the NeuriTox screen: screen; for classification in the NeuriTox screen: hit = NA decreased at concentrations not affecting viability
Protocol: For the NeuriTox test (= UKN4), LUHMES (Lund human mesencephalic) cells were characterized and cultured as described in detail earlier ([Krug et al., 2013]; [Lotharius et al., 2005]; [Scholz et al., 2011]). Briefly, cells were maintained in proliferation medium (PM: AdvDMEM/F12 supplemented with 2 mM glutamine, 1x N2 supplement and 40 ng/ml fibroblast growth factor-2) in PLO/fibronectin coated flasks (50 μg/ml poly-L-ornithine (PLO) and 1 μg/ml fibronectin). For differentiation, cells were seeded at a density of 46,000 cells/cm^2 in PM. After 24 h, they were switched to differentiation medium (DM) containing AdvDMEM/F12 supplemented with 2 mM glutamine, 1x N2 supplement, 2.25 μM tetracycline, 1 mM dibutyryl 3’,5’-cyclic adenosine monophosphate (cAMP), and 2 ng/ml recombinant human glial cell derived neurotrophic factor (GDNF).
For the NeuriTox test, LUHMES cells were differentiated for 48 h and seeded into 96 well plates at a density of 100,000 cells/cm^2 in a volume of 90 μl DM without cAMP and GDNF. Treatment was initiated applying 10 μl of a 10x concentrated treatment solution one hour after seeding. At 24 h after treatment, staining mix (SM) was applied (final concentrations: 1 μg/ml H-33342, 1 μM calcein-AM).
as §1
The procedure was applied as detailed earlier ([Hoelting et al., 2016]; [Stiegler et al., 2011]). After automated imaging, an algorithm was applied that identified the neuronal somata (based on identified nuclei) and subtracted the somatic area from the total neuronal area to obtain the neurite area (NA), i.e., the number of pixels per field covered by neurites. Viability analysis was performed on the same pictures using combined information from H-33342 and calcein channels. Cells with normal-sized nuclei that were calcein-positive were counted as live cells, whereas H-33342 single-positive cells were counted as dead cells. Viability (V) was expressed as percentage of live cells relative to control.
as §2
For calculation of the benchmark concentration values (BMC), a benchmark response (BMR) of three standard deviations of DMSO solvent controls of all assay plates (= “3 x noise level”) was used. […] To identify specific effects on neurite outgrowth, the EC50 ratio of EC50(viability)/EC50(neurite area) was calculated. The NeuriTox test system has a specificity threshold ratio of 4, the PeriTox test system has one of 3 ([Hoelting et al., 2016]; [Krug et al., 2013]).
If V was not affected at the highest tested concentration (HTC), then 4 x HTC was used as surrogate EC50(V) (marked with ♦; for EC25 calculation, the HTC was doubled in this case) ([Krug et al., 2013]).
For the actual screening procedure, a defined workflow was established that contained several pre-determined decision points. All compounds were tested at 1:1000 dilutions of their stock concentration, and at subsequent 3-fold dilution levels. For most compounds, the stock was 20 mM, so that the test concentrations were 20 μM, 6.7 μM, 2.2 μM, 0.7 μM, 0.25 μM, 82 nM, 27 nM, 9 nM, 3 nM, and 1 nM. For 2,2’,4,4’,5,5’-hexabromodiphenyl-ether, chrysene, dibenz(a,h)anthracene, bis(tributyltin) oxide, benzo[g,h,i]perylene, and 2,3,7,8-tetrachlorodibenzo-p-dioxin lower stock concentrations were used.

[2] = Homo sapiens, Neuron, hit confirmation, 24 h, read-out: EC50(NA), neurite area
[3] = Homo sapiens, Neuron, hit confirmation, V not affected at HTC: 4 x HTC used as surrogate, read-out: EC50(V), viability, surrogate marked ♦
[4] = hit confirmation / re-testing, adjusted concentration range, 24 h, read-out: EC50(NA), neurite area

Cl.NCCc1cc(O)c(O)cc1O [6-Hydroxydopamine hydrochloride]
classification in the cardiotoxicity test method (cardiomyocytes): specific

C=CC(N)=O [Acrylamide]
classification / outcome after hit confirmation (EC50 ratio viability/neurite area ≥ 3) [1]: specific PeriTox hit
ratio EC50(V)/EC50(NA) ([1]; hit confirmation, ≥ 3 = specific hit): 3.2
EC50 ([1]; tested at high concentration, 24 h, read-out: EC50(NA), neurite area): 2300 µM

CC(C)(c1ccc(O)cc1)c1ccc(O)cc1 [BPA, bisphenol A]
classification / outcome after hit confirmation or re-testing (EC50 prediction model) (LUHMES cells): no effect up to 100 μM

COc1ccc2cc3[n+](cc2c1OC)CCc1cc2c(cc1-3)OCO2 [Berberine chloride]
classification in the cardiotoxicity test method (cardiomyocytes): generally cytotoxic
EC50 [1, 2]: 11.6 µM
EC50 [1, 3]: 165 µM
classification in the PeriTox screen [1]: active hit compounds
EC50 (LUHMES cells; [4]): 23.9 µM
EC50 (LUHMES cells; hit confirmation, adjusted concentration range, 24 h, read-out: EC50(V), viability): 126 µM
LOAEL for neurite area (lowest tested concentration with significant reduction) (LUHMES cells; 24 h): 20 µM
classification in the NeuriTox screen (LUHMES cells; up to 20 μM, 24 h): active hit compounds

O=C1C2CC=CCC2C(=O)N1SC(Cl)(Cl)Cl (centres unmarked) [Captan]
classification / outcome after hit confirmation or re-testing (EC50 prediction model) (LUHMES cells): cytotoxicant with relatively low potency

CNC(=O)Oc1cccc2ccccc12 [Carbaryl]
classification in the cardiotoxicity test method (cardiomyocytes): specific
classification in the PeriTox screen [1]: active hit compounds
EC50 (LUHMES cells; 24 h, read-out: EC50(NA), neurite area): 31 µM
EC50 (LUHMES cells; 24 h, read-out: EC50(V), viability): 130 µM
LOAEL for neurite area (lowest tested concentration with significant reduction) (LUHMES cells; 24 h): 20 µM
classification in the NeuriTox screen (LUHMES cells; up to 20 μM, 24 h): active hit compounds

COc1cc2c(c(OC)c1OC)-c1ccc(OC)c(=O)cc1[C@@H](NC(C)=O)CC2 [Colchicine]
classification in the PeriTox screen [1]: active hit compounds
LOAEL for neurite area (lowest tested concentration with significant reduction) (LUHMES cells; 24 h): 0.027 µM
classification in the NeuriTox screen (LUHMES cells; up to 20 μM, 24 h): active hit compounds

CC/C(=C(/CC)c1ccc(O)cc1)c1ccc(O)cc1 [Diethylstilbestrol]
classification in the PeriTox screen [1]: active hit compounds
classification in the NeuriTox screen (LUHMES cells; up to 20 μM, 24 h): active hit compounds

Oc1c(Cl)cc(Cl)c(Cl)c1Cc1c(O)c(Cl)cc(Cl)c1Cl [Hexachlorophene]
classification in the NeuriTox screen (LUHMES cells; up to 20 μM, 24 h): cytotoxic

CCCCNC(=O)OCC#CI [Iodocarb]
EC50 [1, 2]: 7.8 µM
EC50 [1, 3]: 66 µM
classification in the PeriTox screen [1]: active hit compounds
EC50 (LUHMES cells; screen data, 24 h exposure, up to 20 μM, read-out: EC50(NA), neurite area): 0.9 µM
EC50 (LUHMES cells; screen data, 24 h exposure, up to 20 μM, read-out: EC50(V), viability): 1.2 µM
ratio EC50(V)/EC50(NA) (LUHMES cells; screen data, specificity threshold 4): 1.3

C[n+]1ccc(-c2ccccc2)cc1.[I-] [MPP^+, 1-methyl-4-phenylpyridinium iodide]
classification / outcome after hit confirmation (EC50 ratio viability/neurite area ≥ 3) [1]: not active at all
EC50 (LUHMES cells; [4]): 80 µM
classification in the NeuriTox screen (LUHMES cells; up to 20 μM, 24 h): active hit compounds
